Patent US20260176267A1, “PREPARATION OF IMIDAZOPYRIDINE AND IMIDAZOPYRIDAZINE DERIVATIVES AS NOVEL DIACYLGLYCERIDE O-ACYLTRANSFERASE 2 INHIBITORS” (Merck Sharp & Dohme LLC, priority 2022, published 2026)

Biological target: T1, human DGAT2 (hDGAT2) (Homo sapiens, UniProt Q96PD7)
T1 construct: made in house; host or cells: Sf-9 insect cells (baculovirus), membrane fraction
T1 sequence (Q96PD7 1-388): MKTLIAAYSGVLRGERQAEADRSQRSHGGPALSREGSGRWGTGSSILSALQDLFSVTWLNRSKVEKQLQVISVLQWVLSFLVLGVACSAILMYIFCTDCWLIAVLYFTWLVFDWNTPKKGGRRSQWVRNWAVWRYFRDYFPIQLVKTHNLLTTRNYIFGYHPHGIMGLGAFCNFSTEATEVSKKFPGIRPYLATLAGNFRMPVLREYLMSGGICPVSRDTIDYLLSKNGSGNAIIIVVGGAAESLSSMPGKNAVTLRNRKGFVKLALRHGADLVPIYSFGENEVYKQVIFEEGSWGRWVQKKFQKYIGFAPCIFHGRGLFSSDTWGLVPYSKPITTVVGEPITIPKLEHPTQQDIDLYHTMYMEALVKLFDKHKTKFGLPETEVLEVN
Assay: DGAT2 Enzymatic Activity Assay
Type: biochemical
Details: membrane prep of Sf-9 cells expressing hDGAT2; 13C18-triolein product by LC/MS/MS; 25 μM diolein, 5 μM 13C oleoyl-CoA, rt
Procedure, shortened: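 Membranes from Sf-9 cells expressing untagged human DGAT2 (baculovirus, 48 h) used as enzyme at rt. The product ^13C18-triolein is quantified by LC/MS/MS against a ^13C21-triolein internal standard. Percent inhibition is taken from high and low controls, and IC50 is derived.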

Row | Compound | IC50
1 | Cc1c(C(=O)NC2(C)CCS(=O)(=O)CC2)nc2cc(F)c(Oc3nccnc3OCC(F)(F)F)cn12 [Example 122, 7-fluoro-3-methyl-N-(4-methyl-1,1-dioxo-thian-4-yl)-6-[3-(2,2,2-trifluoroethoxy)pyrazin-2-yl]oxy-imidazo[1,2-a]pyridine-2-carboxamide] | 0.0077 µM
2 | CC1(NC(=O)c2cn3nc(Oc4nccnc4OCC(F)(F)F)ccc3n2)CCS(=O)(=O)CC1 [Example 165, N-(4-Methyl-1,1-dioxo-thian-4-yl)-6-[3-(2,2,2-trifluoroethoxy)pyrazin-2-yl]oxy-imidazo[1,2-b]pyridazine-2-carboxamide] | 0.901 µM
3 | Cc1c(C(=O)NC2(C)CCS(=O)(=O)CC2)nc2ccc(Oc3ncc(C(=O)O)cc3OCC(F)(F)F)cn12 [Example 151, 6-[3-methyl-2-[(4-methyl-1,1-dioxo-thian-4-yl)carbamoyl]imidazo[1,2-a]pyridine-6-yl]oxy-5-(2,2,2-trifluoroethoxy)pyridine-3-carboxylic acid] | > 9.99 µM
4 | Cc1c(C(=O)NC2(C)CCS(=O)(=O)CC2)nc2ccc(Oc3ncc(F)cc3OCC(C)(F)F)cn12 [Example 94, 6-[[3-(2,2-difluoropropoxy)-5-fluoro-2-pyridyl]oxy]-3-methyl-N-(4-methyl-1,1-dioxo-thian-4-yl)imidazo[1,2-a]pyridine-2-carboxamide] | 0.012 µM
5 | CCc1c(C(=O)NC2(C)CCS(=O)(=O)CC2)nc2ccc(Oc3ncccc3OCC(F)(F)F)cn12 [Example 115, 3-ethyl-N-(4-methyl-1,1-dioxo-thian-4-yl)-6-[[3-(2,2,2-trifluoroethoxy)-2-pyridyl]oxy]imidazo[1,2-a]pyridine-2-carboxamide] | 0.044 µM
6 | Cc1c(C(=O)NC2(C)CCS(=O)(=O)CC2)nc2ccc(OCc3ccc(F)cc3)cn12 [Example 126, 6-[(4-fluorophenyl)methoxy]-3-methyl-N-(4-methyl-1,1-dioxo-thian-4-yl)imidazo[1,2-a]pyridine-2-carboxamide] | 0.465 µM
7 | Cc1c(C(=O)NC2(C)CS(=O)(=O)C2)nc2cc(F)c(Oc3ncc(Cl)cc3OCC(F)(F)F)cn12 [Example 120, 6-[[5-chloro-3-(2,2,2-trifluoroethoxy)-2-pyridyl]oxy]-7-fluoro-3-methyl-N-(3-methyl-1,1-dioxo-thietan-3-yl)imidazo[1,2-a]pyridine-2-carboxamide] | 0.0043 µM
8 | CC(C)c1c(Oc2ncc(Cl)cc2OCC(F)(F)F)ccc2nc(C(=O)NC3(C)CCS(=O)(=O)CC3)cn12 [Example 49, 6-[[5-chloro-3-(2,2,2-trifluoroethoxy)-2-pyridyl]oxy]-5-isopropyl-N-(4-methyl-1,1-dioxo-thian-4-yl)imidazo[1,2-a]pyridine-2-carboxamide] | 0.012 µM
9 | CCC1(NC(=O)c2nc3ccc(Oc4nccnc4OCC(F)(F)F)cn3c2C)CCS(=O)(=O)CC1 [Example 106, N-(4-ethyl-1,1-dioxo-thian-4-yl)-3-methyl-6-[3-(2,2,2-trifluoroethoxy)pyrazin-2-yl]oxy-imidazo[1,2-a]pyridine-2-carboxamide] | 0.638 µM
10 | CC1(NC(=O)c2cn3nc(OCc4ncc(F)cc4OCC(F)(F)F)ccc3n2)CCS(=O)(=O)CC1 [Example 182, 6-[[5-Fluoro-3-(2,2,2-trifluoroethoxy)-2-pyridyl]methoxy]-N-(4-methyl-1,1-dioxo-thian-4-yl)imidazo[1,2-b]pyridazine-2-carboxamide] | 0.011 µM
11 | Cc1cnc(Oc2ccc3nc(C(=O)NC4(C)CS(=O)(=O)C4)c(C)n3c2)c(OCC(F)(F)F)n1 [Example 96] | 0.0057 µM
12 | CC1(NC(=O)c2cn3nc(Oc4ncc(Cl)cc4OCC(F)(F)F)ccc3n2)CCS(=O)(=O)CC1 [Example 159, 6-[[5-Chloro-3-(2,2,2-trifluoroethoxy)-2-pyridyl]oxy]-N-(4-methyl-1,1-dioxo-thian-4-yl)imidazo[1,2-b]pyridazine-2-carboxamide] | 0.211 µM
13 | Cc1c(C(=O)N[C@]2(C)CCS(=O)(=O)C2)nc2ccc(Oc3ncc(F)cc3OCC(F)(F)F)cn12 [Example 101] | 0.088 µM
14 | CC1(NC(=O)c2cn3nc(OCc4ncc(Cl)cc4OCC(F)F)ccc3n2)CCS(=O)(=O)CC1 [Example 180, 6-((5-Chloro-3-(2,2-difluoroethoxy)pyridin-2-yl)methoxy)-N-(4-methyl-1,1-dioxidotetrahydro-2H-thiopyran-4-yl)imidazo[1,2-b]pyridazine-2-carboxamide] | 0.053 µM
15 | CC1(NC(=O)c2cn3cc(Oc4ncc(F)cc4OCC(F)(F)F)ccc3n2)CS(=O)(=O)C1 [Example 32, 6-[[5-fluoro-3-(2,2,2-trifluoroethoxy)-2-pyridyl]oxy]-N-(3-methyl-1,1-dioxo-thietan-3-yl)imidazo[1,2-a]pyridine-2-carboxamide] | 0.031 µM
16 | Cc1c(C(=O)NC2CCS(=O)(=O)C(C)(C)C2)nc2ccc(Oc3ncc(F)cc3OCC(F)F)cn12 (stereo not drawn) [Example 93, 6-[[3-(2,2-difluoroethoxy)-5-fluoro-2-pyridyl]oxy]-N-(2,2-dimethyl-1,1-dioxo-thian-4-yl)-3-methyl-imidazo[1,2-a]pyridine-2-carboxamide] | 0.0029 µM
17 | CCc1cc2nc(C(=O)NC3(C)CCS(=O)(=O)CC3)cn2cc1Oc1ncc(Cl)cc1OCC(F)(F)F [Example 59, 6-((5-Chloro-3-(2,2,2-trifluoroethoxy)pyridin-2-yl)oxy)-7-ethyl-N-(4-methyl-1,1-dioxidotetrahydro-2H-thiopyran-4-yl)imidazo[1,2-a]pyridine-2-carboxamide] | 0.009 µM
18 | Cc1c(C(=O)NC2(C)CCS(=O)(=O)CC2)nc2ccc(Oc3ncc(Cl)cc3OCC(F)F)nn12 [Example 166, 6-((5-Chloro-3-(2,2-difluoroethoxy)pyridin-2-yl)oxy)-3-methyl-N-(4-methyl-1,1-dioxidotetrahydro-2H-thiopyran-4-yl)imidazo[1,2-b]pyridazine-2-carboxamide] | 0.0068 µM
19 | CC1(NC(=O)c2nc3ccc(Oc4ncc(F)cc4OCC(F)(F)F)c(Cl)n3c2Cl)CS(=O)(=O)C1 [Example 140, 3,5-dichloro-6-[[5-fluoro-3-(2,2,2-trifluoroethoxy)-2-pyridyl]oxy]-N-(3-methyl-1,1-dioxo-thietan-3-yl)imidazo[1,2-a]pyridine-2-carboxamide] | 0.0021 µM
20 | Cc1c(C(=O)NC2(C)CCS(=O)(=O)CC2)nc2ccc(OCc3ncccc3OCC(F)(F)F)cn12 [Example 123, 3-methyl-N-(4-methyl-1,1-dioxo-thian-4-yl)-6-[[3-(2,2,2-trifluoroethoxy)-2-pyridyl]methoxy]imidazo[1,2-a]pyridine-2-carboxamide] | 0.093 µM
21 | Cc1c(C(=O)NC2(C)CCS(=O)(=O)CC2)nc2ccc(Oc3ncc(C(C)(C)O)cc3OCC(F)(F)F)cn12 [Example 146, 6-[[5-(1-hydroxy-1-methyl-ethyl)-3-(2,2,2-trifluoroethoxy)-2-pyridyl]oxy]-3-methyl-N-(4-methyl-1,1-dioxo-thian-4-yl)imidazo[1,2-a]pyridine-2-carboxamide] | 0.102 µM
